This note sets out measurements from ChEMBL document CHEMBL1201862, “PubChem BioAssay data set” (2004).

Structures are written as SMILES. Several values for one entry are separate records, joined by “and”; a condition that tells them apart may be missing. Equal values may be shown once. Activity calls are given as the source filed them.

A short description of test [1]: HEK-293T cell viability reduction – luminescence, B-cell screen hits, cytotoxicity control for BCR NF-kB inhibitor project, dose response (AID 489021).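 Also: HEK-293T cells carrying an NF-kB luciferase reporter; cells exposed to compound for about 14 hours before viability readout.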 The test is classed as functional, cell-based.
Test [2] deals with Glyceraldehyde-3-phosphate dehydrogenase (Homo sapiens, UniProt P04406).
Sequence of Glyceraldehyde-3-phosphate dehydrogenase (P04406 whole entry): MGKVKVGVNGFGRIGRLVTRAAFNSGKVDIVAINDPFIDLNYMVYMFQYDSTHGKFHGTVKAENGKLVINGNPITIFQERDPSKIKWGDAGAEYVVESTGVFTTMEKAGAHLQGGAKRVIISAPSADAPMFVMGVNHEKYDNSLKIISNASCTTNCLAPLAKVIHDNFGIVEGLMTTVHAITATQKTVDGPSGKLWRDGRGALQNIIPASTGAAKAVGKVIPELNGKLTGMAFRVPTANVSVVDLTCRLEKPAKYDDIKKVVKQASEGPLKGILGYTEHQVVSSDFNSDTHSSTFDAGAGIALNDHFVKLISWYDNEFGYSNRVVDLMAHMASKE
Test [3] has as its target T1, Alkaline phosphatase, tissue-nonspecific isozyme (Homo sapiens, UniProt P05186).
T1 sequence (P05186 whole entry): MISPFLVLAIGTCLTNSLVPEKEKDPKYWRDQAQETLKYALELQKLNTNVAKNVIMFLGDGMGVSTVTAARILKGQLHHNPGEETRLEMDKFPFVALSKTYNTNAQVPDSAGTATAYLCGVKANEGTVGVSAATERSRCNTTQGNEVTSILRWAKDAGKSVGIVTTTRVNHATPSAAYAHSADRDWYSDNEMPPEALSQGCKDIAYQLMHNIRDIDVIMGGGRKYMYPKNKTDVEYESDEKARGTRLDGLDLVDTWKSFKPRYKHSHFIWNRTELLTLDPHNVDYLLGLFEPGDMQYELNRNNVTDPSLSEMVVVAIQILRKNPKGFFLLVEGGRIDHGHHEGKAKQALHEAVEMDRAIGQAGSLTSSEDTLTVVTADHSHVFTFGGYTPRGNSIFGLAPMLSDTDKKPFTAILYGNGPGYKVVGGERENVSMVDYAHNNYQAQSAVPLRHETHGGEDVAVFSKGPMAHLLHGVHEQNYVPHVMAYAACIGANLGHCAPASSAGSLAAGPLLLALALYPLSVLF
Kind of test: potency against alkaline phosphatase TNAP – biochemical, luminescent, dose response, SAR follow-up (AID 1056).

Test [4] has as its target T2, DNA dC->dU-editing enzyme APOBEC-3A (Homo sapiens, UniProt P31941). The experiment in a line: Dose Response confirmation of small molecule APOBEC3A DNA Deaminase Inhibitors via a fluorescence-based single-stranded DNA deaminase assay. [Related pubchem assays (depositor defined):AID493011, AID493024]. The test is classed as functional.
For test [5], the target named is T3, DNA dC->dU-editing enzyme APOBEC-3G (Homo sapiens, UniProt Q9HC16). It is filed as functional.
T3 sequence (Q9HC16 whole entry): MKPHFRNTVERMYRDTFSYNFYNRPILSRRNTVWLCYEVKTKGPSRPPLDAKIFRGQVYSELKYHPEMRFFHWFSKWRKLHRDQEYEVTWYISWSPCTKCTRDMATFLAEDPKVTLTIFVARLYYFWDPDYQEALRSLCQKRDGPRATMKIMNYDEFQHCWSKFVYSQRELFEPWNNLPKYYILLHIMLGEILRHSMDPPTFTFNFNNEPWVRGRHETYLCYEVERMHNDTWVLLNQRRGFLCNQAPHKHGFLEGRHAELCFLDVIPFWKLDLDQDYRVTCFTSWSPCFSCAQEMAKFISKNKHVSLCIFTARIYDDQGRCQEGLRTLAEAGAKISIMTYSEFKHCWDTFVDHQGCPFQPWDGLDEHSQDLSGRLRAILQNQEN
In test [6] the target is Cytochrome P450 3A4 (Homo sapiens, UniProt P08684). The following applies: Potency.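 Also: confirmatory qHTS run detecting inhibitors and substrates of CYP3A4.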
Sequence of Cytochrome P450 3A4 (P08684 whole entry): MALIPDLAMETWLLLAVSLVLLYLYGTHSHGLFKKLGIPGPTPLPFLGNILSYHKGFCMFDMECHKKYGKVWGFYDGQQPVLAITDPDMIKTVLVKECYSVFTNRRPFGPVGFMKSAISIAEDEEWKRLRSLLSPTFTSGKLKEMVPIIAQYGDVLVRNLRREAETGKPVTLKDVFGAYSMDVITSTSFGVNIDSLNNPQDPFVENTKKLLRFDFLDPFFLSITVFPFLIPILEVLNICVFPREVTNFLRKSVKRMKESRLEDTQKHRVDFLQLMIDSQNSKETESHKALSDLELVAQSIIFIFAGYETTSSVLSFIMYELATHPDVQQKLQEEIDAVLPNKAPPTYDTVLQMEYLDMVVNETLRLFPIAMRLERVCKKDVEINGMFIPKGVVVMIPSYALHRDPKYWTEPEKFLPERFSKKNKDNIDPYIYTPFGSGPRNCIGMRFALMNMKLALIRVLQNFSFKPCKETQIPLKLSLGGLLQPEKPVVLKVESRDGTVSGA
In test [7] the target is Troponin, cardiac muscle (Homo sapiens, UniProt P19429+P45379+P63316). Kind of test: Fluorescence-based biochemical high throughput dose response assay for activators of the calcium sensitivity of cardiac Regulated Thin Filaments (RTF). [Related pubchem assays (depositor defined):AID493008, AID493018, AID504382, AID504383]. The test is classed as protein-complex assay.
Test [8] addresses T4, RNA-binding protein pos-1 (Caenorhabditis elegans, UniProt G5EF15).
T4 sequence (G5EF15 whole entry): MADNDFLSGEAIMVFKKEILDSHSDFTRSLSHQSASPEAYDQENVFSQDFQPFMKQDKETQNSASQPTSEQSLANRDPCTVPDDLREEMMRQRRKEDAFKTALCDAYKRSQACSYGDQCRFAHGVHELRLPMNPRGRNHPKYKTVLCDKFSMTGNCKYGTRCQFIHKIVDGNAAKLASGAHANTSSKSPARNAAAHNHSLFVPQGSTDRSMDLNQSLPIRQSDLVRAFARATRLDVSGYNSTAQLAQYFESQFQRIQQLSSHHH
The experiment in a line: disruptors of C. elegans POS-1 RNA interaction – biochemical, fluorescence polarization, dose response (AID 1964).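 Also: purified POS-1 fused to maltose binding protein made in E. coli; potency of compounds blocking POS-1 binding to fluorescent RNA.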

Test [9] addresses T5, Zinc finger protein mex-5 (Caenorhabditis elegans, UniProt Q9XUB2).
T5 sequence (Q9XUB2 whole entry): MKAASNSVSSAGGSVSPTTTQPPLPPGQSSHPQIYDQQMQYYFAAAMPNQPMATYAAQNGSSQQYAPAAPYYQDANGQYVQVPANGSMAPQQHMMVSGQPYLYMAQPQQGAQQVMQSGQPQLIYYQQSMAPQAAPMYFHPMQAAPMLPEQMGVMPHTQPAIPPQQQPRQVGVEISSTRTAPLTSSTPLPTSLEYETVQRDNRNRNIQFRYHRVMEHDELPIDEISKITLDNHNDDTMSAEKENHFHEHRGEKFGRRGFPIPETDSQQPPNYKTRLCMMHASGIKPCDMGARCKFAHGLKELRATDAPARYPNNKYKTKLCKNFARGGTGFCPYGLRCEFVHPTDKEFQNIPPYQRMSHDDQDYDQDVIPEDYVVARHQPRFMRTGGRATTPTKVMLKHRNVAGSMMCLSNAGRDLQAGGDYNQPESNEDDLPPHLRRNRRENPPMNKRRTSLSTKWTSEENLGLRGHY
Kind of test: potency of MEX-5 RNA-binding blockers – biochemical, C. elegans, fluorescence polarization, dose response (AID 1960). A general note: Polarisation of emitted light reports the rotation of a fluorescent probe.

The target in test [10] is T3, DNA dC->dU-editing enzyme APOBEC-3G. Kind of test: Dose Response confirmation of small molecule APOBEC3G DNA Deaminase Inhibitors via a fluorescence-based single-stranded DNA deaminase assay. [Related pubchem assays (depositor defined):AID493012, AID493028]. The test is classed as functional.
In test [11] the target is T2, DNA dC->dU-editing enzyme APOBEC-3A. Kind of test: A3A deaminase inhibition for selectivity – biochemical, dose response (AID 504722). The test is classed as functional.
The subject of test [12] is H4. Kind of test: Luminescence Cell-Based Dose Response HTS to Identify Activators of 5'UTR Stem-Loop Driven Prion Protein mRNA Translation in H4 Neuroglioblastoma Cells. [Related pubchem assays: 1829 (Project Summary), 1814 (Primary HTS)]. It is filed as functional. The note with it: Homo sapiens.
Test [13] is described as follows: Luminescence Cell-Based Dose Confirmation to Identify Activators of 5'UTR Stem-Loop Driven Alpha-Synuclein mRNA Translation in H4 Neuroglioblastoma Cells. [Related pubchem assays: 1829 (Project Summary), 1814 (Primary HTS)]. The test is classed as functional.
A short description of test [14]: Luminescence Cell-Based Dose Response to Identify Activators of 5'UTR Stem-Loop Driven Prion Protein mRNA Translation in H4-C Neuroglioblastoma Cells. [Related pubchem assays: 1829 (Project Summary), 1814 (Primary HTS)]. It is filed as functional.
Test [15] can be described thus: Luminescence Cell-Based Dose Confirmation HTS to Identify Activators of 5'UTR Stem-Loop Driven Alpha-Synuclein mRNA Translation in H4 Neuroglioblastoma Cells. [Related pubchem assays: 1829 (Project Summary), 1814 (Primary HTS)]. The test is classed as functional.
A short description of test [16]: Luminescence Cell-Based Dose Response to Identify Activators of Luciferase Translation or Activity in H4-C Neuroglioblastoma Cells. [Related pubchem assays: 1829 (Project Summary), 1814 (Primary HTS)]. The test is classed as functional.
Test [17] is described as follows: Luminescence Cell-Based Dose Response HTS to Identify Activators of Luciferase Translation or Activity in H4 […] Cells. [Related pubchem assays: 1829 (Project Summary), 1814 (Primary HTS)]. It is filed as functional.
The nature of test [18]: THP-1 cell cytotoxicity, dose response, cytotoxicity control for non-replicating M. tuberculosis project (AID 489025). The test is classed as functional.
The nature of test [19]: cells. The test is classed as functional.
Test [20] deals with Induced myeloid leukemia cell differentiation protein Mcl-1 (Homo sapiens, UniProt Q07820). It is filed as functional.
Sequence of Induced myeloid leukemia cell differentiation protein Mcl-1 (Q07820 whole entry): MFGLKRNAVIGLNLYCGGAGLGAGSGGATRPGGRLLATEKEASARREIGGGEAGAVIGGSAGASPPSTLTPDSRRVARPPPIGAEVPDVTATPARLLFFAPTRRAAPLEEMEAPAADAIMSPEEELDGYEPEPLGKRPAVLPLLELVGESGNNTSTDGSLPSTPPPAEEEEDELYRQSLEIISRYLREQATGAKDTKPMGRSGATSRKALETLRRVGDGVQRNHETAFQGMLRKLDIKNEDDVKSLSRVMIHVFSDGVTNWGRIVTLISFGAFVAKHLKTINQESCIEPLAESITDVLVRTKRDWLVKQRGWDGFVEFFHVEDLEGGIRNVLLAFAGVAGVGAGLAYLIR
The target of test [21] is Prothrombin (Homo sapiens, UniProt P00734). Kind of test: Thrombin 1536 HTS Dose Response Confirmation. [Related pubchem assays: 1046 (Thrombin 1536 HTS; hits were confirmed in this assay)]. It is filed as functional.
Test [22] concerns the target T6, DNA repair protein RAD52 homolog (Homo sapiens, UniProt P43351).
T6 sequence (P43351 whole entry): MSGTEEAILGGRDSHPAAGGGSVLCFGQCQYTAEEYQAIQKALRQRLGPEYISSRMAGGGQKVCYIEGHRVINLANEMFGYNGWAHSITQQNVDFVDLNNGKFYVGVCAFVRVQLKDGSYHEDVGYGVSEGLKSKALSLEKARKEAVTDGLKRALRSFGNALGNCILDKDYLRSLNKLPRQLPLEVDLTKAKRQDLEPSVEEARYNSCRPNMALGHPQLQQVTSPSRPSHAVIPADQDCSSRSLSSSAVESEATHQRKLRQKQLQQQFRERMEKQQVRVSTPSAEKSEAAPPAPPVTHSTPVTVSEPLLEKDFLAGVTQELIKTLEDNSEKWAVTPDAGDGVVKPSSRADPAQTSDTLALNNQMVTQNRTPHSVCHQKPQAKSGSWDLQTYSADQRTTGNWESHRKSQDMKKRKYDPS
The test is classed as functional, biochemical.

T2 sequence (P31941 whole entry): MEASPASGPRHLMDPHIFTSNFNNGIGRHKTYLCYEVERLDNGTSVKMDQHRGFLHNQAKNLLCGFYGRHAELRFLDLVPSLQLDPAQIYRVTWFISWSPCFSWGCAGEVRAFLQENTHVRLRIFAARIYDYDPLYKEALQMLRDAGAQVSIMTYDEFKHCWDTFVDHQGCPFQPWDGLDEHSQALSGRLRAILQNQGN

In general, IC50 refers to the midpoint of a concentration-inhibition curve. `Cn1c(=O)c2c(SCC(=O)Nc3ccccc3F)nc(-c3ccccc3F)nc2n(C)c1=O`: in test [1], the IC50 was > 80 µM (inactive).

For the compound `O=S(=O)(Nc1cnc2ccccc2c1)c1ccc(Br)cc1OC(F)(F)F`, the IC50 is > 100 µM (not active) in [2] and 1.5 µM (active) in [3].

For `CCN(CC)c1ccc(/C=C2/C(=O)ON=C2C)cc1`, in [1], the IC50 is > 80 µM (inactive).

With `C[N+](C)(C)CCOC(=O)C1(c2ccccc2)CCCC1`, the IC50 is 1.06 µM (active) in [4] and 1.12 µM (active) in [5].

As for `Cc1ccc(S(=O)(=O)Nc2ccc3ccccc3c2)cc1`, the IC50 in test [2] is > 100 µM (not active); in test [3] it was > 100 µM (inactive).

What is called AC50 is the concentration at which the activity in the assay is half-maximal. Consider `COCCNc1nc(C)nc2c1nc(-c1ccccc1)n2CCN1CCCC1`, for which the AC50 in test [6] is 25.1 µM (inconclusive).

For orientation: EC50 means the concentration giving half of the maximal effect. In the case of `CC(=O)N1CCc2c(sc(NC(=O)C3CCCN3S(=O)(=O)c3cccs3)c2C(N)=O)C1` (stereo unspecified), the EC50 in [7] was 18.5 µM (inactive); in test [8] it was 10.2 µM (active); in test [9], 5.83 µM (active).

Consider `Nn1c(COc2ccc(Cl)cc2)n[nH]c1=S`, for which the concentration for half-maximal inhibition (IC50) in test [10] is 2.49 µM (active); in [11], > 100 µM (inactive).

As for `Cc1ccc(NC(=O)C2CCCN(c3ncccn3)C2)cc1F` (stereo unspecified), the concentration giving a half-maximal response (EC50) in [12] is 6.45 µM (active); in test [13], 0.141 µM (active); in test [14] it was 1.22 µM (active); in test [15], < 0.1 µM (active); in [16] it was 0.856 µM (active); in test [17], 0.125 µM (inconclusive).

In the case of `CCN(CC)c1ccc(NC(=O)c2cncc(Br)c2)cc1`, the concentration giving a half-maximal response (EC50) in [12] was 14.3 µM (active); in test [13] it was 0.53 µM (active); in test [14] it was > 12 µM (not active); in [16], > 12 µM (not active); in test [17], 1.48 µM (active).

By CC50 is commonly meant the concentration that lowers cell viability or growth by half. Consider `Cc1ccccc1OCCNc1cc(N2CC(C)NC(C)C2)ccc1[N+](=O)[O-]` (stereo unspecified), for which the CC50 in test [18] is 21.4 µM (active). For the same compound, in test [19], the IC50 is 12.8 µM (active).

Take `Cn1c(SCC(=O)Nc2ccc3nc(SCC(=O)N4CCCC4)sc3c2)nnc1-c1ccccc1`: the IC50 in test [20] is 2.83 µM (active).

For `CN(CC(=O)NCc1ccco1)S(=O)(=O)c1cccc2cccnc12`, in test [7], the EC50 was > 71.5 µM (inactive).

For `COc1ccc(-c2nn(C)c(=O)c3ccccc23)cc1CNC(=O)C1CCCCC1`, in [21], the IC50 is > 50 µM (not active).

As to `Fc1ccc(Oc2cnc3ccccc3n2)cc1`, the IC50 in [21] was > 50 µM (not active).

As to `CSC1=N/C(=C\c2ccc(C)o2)C(=O)S1`, the IC50 in test [21] is recorded as > 50 µM (not active).

For the compound `Cc1c(C)n(C)c2ccc(C(=O)NCCCN3CCN(C)CC3)cc12`, the half-maximal activity concentration (AC50) in [22] was 7.04 µM (active).

For `Fc1ccc(/C=N/NC2=Nc3cccc4cccc2c34)cc1`, the concentration for a half-maximal effect (EC50) is < 0.1 µM (active) in test [12]; 0.278 µM (active) in test [13]; 0.233 µM (active) in test [14]; 0.343 µM (active) in [16]; < 0.1 µM (inconclusive) in test [17].

Take `COc1cccc(C(=O)N/N=C/c2ccc(Oc3ccc([N+](=O)[O-])cn3)c(OC)c2)c1`: the figures for the 50% inhibitory concentration (IC50) in test [4] and in [5] were 3.44 µM (active) and 3.84 µM (active), respectively.

Regarding `Fc1ccccc1/C=N/n1c(S)nnc1-c1cccnc1`, the IC50 in test [10] is 3.16 µM (active); in test [11], > 100 µM (inactive).

`Cc1ccc(/C=N/n2c(S)nnc2-c2ccncc2)o1`: the IC50 was 6.55 µM (active) in test [10] and > 100 µM (inactive) in [11].

As to `Nc1cccc2ccccc12`, the half-maximal activity concentration (AC50) in test [6] is 31.6 µM (inconclusive).

Turning to `CCCCC/C=C\C/C=C\C/C=C\C/C=C\CCCC(=O)O` [ARACHIDONIC ACID], the AC50 in [6] is 39.8 µM (inconclusive) and 7.94 µM (inconclusive).
